According to PubChem BioAssay AID2060896 (Molecular Pharmacology Branch, DTP, NCI, 2025):

Tested on: 941728-121-R-J1-PDC complex spheroid viability
Test: Anticancer human tumor 941728-121-R-J1-PDC patient-derived lung adenocarcinoma cell line growth inhibition [RAS]
Details: for viability, T/C: stronger effect = lower value
Outline: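 Tumour cells grown as complex spheroids with HUVEC endothelial cells and mesenchymal stem cells, treated with RAS pathway inhibitor combinations. Each agent spans half-log steps from near clinical Cmax, or 10 microM where Cmax is unknown.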
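Also: spheroids exposed to compounds for 7 days before readout.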
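For viability, T/C in this document: 100% = DMSO vehicle control viability.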

Compound: CC1(C)CCC(Nc2ncc(C(F)(F)F)c(-c3c[nH]c4c(P(C)(C)=O)c(C#N)ccc34)n2)CN1 (configuration not stated) + C=CC(=O)N1CCN(c2nc(OCC3CCCN3C)nc3c(F)c(-c4nc(N)cc(C)c4C(F)(F)F)c(Cl)cc23)C(C)C1
- IC50 (curve of first compound, second compound 0.00316 µM): < 949 pM
- IC50 (curve of first compound, second compound 0.01 µM): < 949 pM
- IC50 (curve of first compound, second compound 0.0316 µM): < 949 pM
- IC50 (curve of first compound, second compound 0.1 µM): < 949 pM
- IC50 (curve of first compound, second compound 0.316 µM): < 949 pM
- IC50 (curve of first compound, second compound 1 µM): < 949 pM
- viability, T/C (second compound 0.00316 µM, first compound 0.000949 µM): 17.1%
- viability, T/C (second compound 0.00316 µM, first compound 0.003 µM): 18.1%
- viability, T/C (second compound 0.00316 µM, first compound 0.00949 µM): 19.7%
- viability, T/C (second compound 0.00316 µM, first compound 0.03 µM): 19%
- viability, T/C (second compound 0.00316 µM, first compound 0.0949 µM): 20.5%
- viability, T/C (second compound 0.00316 µM, first compound 0.3 µM): 20.9%
- viability, T/C (second compound 0.01 µM, first compound 0.000949 µM): 18.9%
- viability, T/C (second compound 0.01 µM, first compound 0.003 µM): 16.2%
- viability, T/C (second compound 0.01 µM, first compound 0.00949 µM): 17.9%
- viability, T/C (second compound 0.01 µM, first compound 0.03 µM): 17.8%
- viability, T/C (second compound 0.01 µM, first compound 0.0949 µM): 17.9%
- viability, T/C (second compound 0.01 µM, first compound 0.3 µM): 16.8%
- viability, T/C (second compound 0.0316 µM, first compound 0.000949 µM): 14.8%
- viability, T/C (second compound 0.0316 µM, first compound 0.003 µM): 16.8%
- viability, T/C (second compound 0.0316 µM, first compound 0.00949 µM): 17.8%
- viability, T/C (second compound 0.0316 µM, first compound 0.03 µM): 17.6%
- viability, T/C (second compound 0.0316 µM, first compound 0.0949 µM): 17.7%
- viability, T/C (second compound 0.0316 µM, first compound 0.3 µM): 17.7%
- viability, T/C (second compound 0.1 µM, first compound 0.000949 µM): 15.4%
- viability, T/C (second compound 0.1 µM, first compound 0.003 µM): 16.9%
- viability, T/C (second compound 0.1 µM, first compound 0.00949 µM): 17%
- viability, T/C (second compound 0.1 µM, first compound 0.03 µM): 17.2%
- viability, T/C (second compound 0.1 µM, first compound 0.0949 µM): 17.8%
- viability, T/C (second compound 0.1 µM, first compound 0.3 µM): 19.1%
- viability, T/C (second compound 0.316 µM, first compound 0.000949 µM): 15.3%
- viability, T/C (second compound 0.316 µM, first compound 0.003 µM): 15.8%
- viability, T/C (second compound 0.316 µM, first compound 0.00949 µM): 15.8%
- viability, T/C (second compound 0.316 µM, first compound 0.03 µM): 17.7%
- viability, T/C (second compound 0.316 µM, first compound 0.0949 µM): 19.3%
- viability, T/C (second compound 0.316 µM, first compound 0.3 µM): 18.1%
- viability, T/C (second compound 1 µM, first compound 0.000949 µM): 16.6%
- viability, T/C (second compound 1 µM, first compound 0.003 µM): 16.6%
- viability, T/C (second compound 1 µM, first compound 0.00949 µM): 18.8%
- viability, T/C (second compound 1 µM, first compound 0.03 µM): 19.3%
- viability, T/C (second compound 1 µM, first compound 0.0949 µM): 18.6%
- viability, T/C (second compound 1 µM, first compound 0.3 µM): 21%

Compound: CCc1c2c(nc3ccc(O)cc13)-c1cc3c(c(=O)n1C2)COC(=O)[C@]3(O)CC + CCn1c(-c2cc(N3CCN(C)CC3)cnc2C(C)OC)c2c3cc(ccc31)-c1csc(n1)CC(NC(=O)C1CC1C)C(=O)N1CCCC(N1)C(=O)OCC(C)(C)C2
- IC50 (curve of first compound, second compound 0.000949 µM): < 949 pM
- IC50 (curve of first compound, second compound 0.003 µM): < 949 pM
- IC50 (curve of first compound, second compound 0.00949 µM): < 949 pM
- IC50 (curve of first compound, second compound 0.03 µM): < 949 pM
- IC50 (curve of first compound, second compound 0.0949 µM): < 949 pM
- IC50 (curve of first compound, second compound 0.3 µM): < 949 pM
- viability, T/C (second compound 0.000949 µM, first compound 0.000949 µM): 24.6%
- viability, T/C (second compound 0.000949 µM, first compound 0.003 µM): 24.4%
- viability, T/C (second compound 0.000949 µM, first compound 0.00949 µM): 19.9%
- viability, T/C (second compound 0.000949 µM, first compound 0.03 µM): 20.5%
- viability, T/C (second compound 0.000949 µM, first compound 0.0949 µM): 18.1%
- viability, T/C (second compound 0.000949 µM, first compound 0.3 µM): 9.95%
- viability, T/C (second compound 0.003 µM, first compound 0.000949 µM): 25.8%
- viability, T/C (second compound 0.003 µM, first compound 0.003 µM): 16.7%
- viability, T/C (second compound 0.003 µM, first compound 0.00949 µM): 12.8%
- viability, T/C (second compound 0.003 µM, first compound 0.03 µM): 13.4%
- viability, T/C (second compound 0.003 µM, first compound 0.0949 µM): 10.3%
- viability, T/C (second compound 0.003 µM, first compound 0.3 µM): 5.76%
- viability, T/C (second compound 0.00949 µM, first compound 0.000949 µM): 17.3%
- viability, T/C (second compound 0.00949 µM, first compound 0.003 µM): 10.6%
- viability, T/C (second compound 0.00949 µM, first compound 0.00949 µM): 13.3%
- viability, T/C (second compound 0.00949 µM, first compound 0.03 µM): 10.5%
- viability, T/C (second compound 0.00949 µM, first compound 0.0949 µM): 7.7%
- viability, T/C (second compound 0.00949 µM, first compound 0.3 µM): 4.19%
- viability, T/C (second compound 0.03 µM, first compound 0.000949 µM): 13.7%
- viability, T/C (second compound 0.03 µM, first compound 0.003 µM): 14.1%
- viability, T/C (second compound 0.03 µM, first compound 0.00949 µM): 9.58%
- viability, T/C (second compound 0.03 µM, first compound 0.03 µM): 8.62%
- viability, T/C (second compound 0.03 µM, first compound 0.0949 µM): 5.46%
- viability, T/C (second compound 0.03 µM, first compound 0.3 µM): 4.56%
- viability, T/C (second compound 0.0949 µM, first compound 0.000949 µM): 12.9%
- viability, T/C (second compound 0.0949 µM, first compound 0.003 µM): 11.2%
- viability, T/C (second compound 0.0949 µM, first compound 0.00949 µM): 10.6%
- viability, T/C (second compound 0.0949 µM, first compound 0.03 µM): 8.43%
- viability, T/C (second compound 0.0949 µM, first compound 0.0949 µM): 5.36%
- viability, T/C (second compound 0.0949 µM, first compound 0.3 µM): 4.56%
- viability, T/C (second compound 0.3 µM, first compound 0.000949 µM): 10.8%
- viability, T/C (second compound 0.3 µM, first compound 0.003 µM): 10.7%
- viability, T/C (second compound 0.3 µM, first compound 0.00949 µM): 9.64%
- viability, T/C (second compound 0.3 µM, first compound 0.03 µM): 10.6%
- viability, T/C (second compound 0.3 µM, first compound 0.0949 µM): 5.65%
- viability, T/C (second compound 0.3 µM, first compound 0.3 µM): 3.94%

Compound: C=CC(=O)N1CCN(c2nc(OCC3CCCN3C)nc3c(F)c(-c4nc(N)cc(C)c4C(F)(F)F)c(Cl)cc23)C(C)C1 (configuration not stated)
- viability, T/C (compound 0.00316 µM): 21.7% [middle of 12 runs]
- viability, T/C (compound 0.01 µM): 19.7% [middle of 12 runs]
- viability, T/C (compound 0.0316 µM): 19.9% [middle of 12 runs]
- viability, T/C (compound 0.1 µM): 19.5% [middle of 12 runs]
- viability, T/C (compound 0.316 µM): 22.8% [middle of 12 runs]
- viability, T/C (compound 1 µM): 21% [middle of 12 runs]
- IC50 (compound alone, run of 07/15/2024): < 3160 pM
- IC50 (curve of compound): < 3160 pM
